In brackets after ≈: the same amount, converted by molar mass.
Tests used:
Format in all cases: cell-based
[1] = system: Staphylococcus aureus (H-Heatley) NRRL B-314; experiment: in vitro turbidometric assay (Autoturb Microbiological Assay System) against Staphylococcus aureus; conditions: nutrient broth pH 7, approximately 4 hours at 37° C., A-40104 factor A as standard
Protocol: The compounds are conveniently tested against a typical gram-positive organism, Staphylococcus aureus, using a turbidometric assay on a semi-automated system (Autoturb Microbiological Assay System, Elanco) described by N. R. Kuzel and F. W. Kavanagh in J. Pharmaceut. Sci, 60 (5), 764 and 767 (1971). In testing these compounds, the following parameters were used: Staphylococcus aureus (H-Heatley) NRRL B-314 in a nutrient broth medium (pH 7), incubated for approximately 4 hours at 37° C. Test samples and A-40104 factor A, which is used as a standard, were dissolved in water. The standard was presented to the Autoturb carrousel at concentrations of 1.25, 2.50, 3.75, 5.00 and 6.25 mcg/ml. Test compounds were diluted to contain approximately 2.5 to 5.0 mcg of activity per ml, as presented to the carrousel. The units of activity of some of the typical compounds of this invention (R^2 =H in group tested) in this in vitro assay are summarized in Table I

[2] = system: Mycoplasma gallisepticum; experiment: in vitro broth-dilution studies, mycoplasma; conditions: Mycoplasmoides gallisepticum
Description: (§1) The minimal inhibitory concentrations (MIC's) of a number of typical compounds of the present invention (R^2 =H in group tested) against various mycoplasma species, as determined by in vitro broth-dilution studies, are summarized in Table V.

[3] = system: Mycoplasma hyorhinis; experiment: in vitro broth-dilution studies, mycoplasma
Description: as §1

[4] = system: Mycoplasma synoviae; experiment: in vitro broth-dilution studies, mycoplasma; conditions: Mycoplasmopsis synoviae
Description: as §1

[5] = system: Spiroplasma citri; experiment: in vitro inhibition of Spiroplasma citri measured by a color reaction; set-up: key to Activity (color reaction): Red (R) includes complete inhibition; red-orange (RO) indicates partial inhibition; yellow (Y) indicates no inhibition
Protocol: In another important aspect, the compounds of this invention are active against Spiroplasmas. Spiroplasma citri is the causative agent of citrus-stubborn disease; another Spiroplasma, corn-stunt Spiroplasma, affects the growth of corn. Table VII summarizes the in vitro activity of representative compounds of the present invention (R^2 =H in this group) against Spiroplasma citri. In this test, inhibition of S. citri is measured by a color reaction. Red (R) includes complete inhibition; red-orange (RO) indicates partial inhibition; and yellow (Y) indicates no inhibition.

For C=C[C@]1(C)C[C@@H](OC(=O)CO[C@@H]2O[C@H](COC(C)=O)[C@@H](OC(C)=O)[C@H](OC(C)=O)[C@H]2OC(C)=O)[C@]2(C)[C@H](C)CC[C@]3(CCC(=O)[C@H]32)[C@@H](C)[C@@H]1O [Example 3, 14-deoxy-14-[(2,3,4,6-tetra-O-acetyl-β-D-glucopyranosyl)oxyacetoxy]mutilin], the “Units of Activity” value [1] was 75 to 85 µg/mg, the MIC [2] was 0.78 µg/mL (≈ 1.1 µM) and the MIC [3] was 0.78 µg/mL (≈ 1.1 µM). For the same compound, the MIC [4] was 0.78 µg/mL (≈ 1.1 µM) and the “Activity (color reaction)” value ([5]; 1.0 ppm) was “R”.

With C=C[C@]1(C)C[C@@H](OC(=O)CO[C@@H]2O[C@H](CO)[C@@H](O)[C@H](O)[C@H]2O)[C@]2(C)[C@H](C)CC[C@]3(CCC(=O)[C@H]32)[C@@H](C)[C@@H]1O [Example 4, 14-deoxy-14-[(β-D-glucopyranosyl)oxyacetoxy]-mutilin] the “Units of Activity” value [1] was 12 to 13 µg/mg, the MIC [2] was 0.39 µg/mL (≈ 0.721 µM) and the MIC [3] was 0.78 µg/mL (≈ 1.44 µM). For the same compound, the MIC [4] was 0.78 µg/mL (≈ 1.44 µM), the “Activity (color reaction)” value ([5]; 0.1 ppm) was “Y” and the “Activity (color reaction)” value ([5]; 1.0 ppm) was “R”.

C=C[C@]1(C)C[C@@H](OC(=O)CS[C@H]2O[C@H](COC(C)=O)[C@@H](OC(C)=O)[C@H]2OC(C)=O)[C@]2(C)[C@H](C)CC[C@]3(CCC(=O)[C@H]32)[C@@H](C)[C@@H]1O [Example 41 α-anomer, 14-deoxy-14-[(2,3,5-tri-O-acetyl-α-D-ribofuranosyl)thioacetoxy]mutilin] was tested, and the “Units of Activity” value [1] was “about 200 mcg/mg”.

In the case of C=C[C@]1(C)C[C@@H](OC(=O)CS[C@@H]2O[C@H](COC(C)=O)[C@@H](OC(C)=O)[C@H]2OC(C)=O)[C@]2(C)[C@H](C)CC[C@]3(CCC(=O)[C@H]32)[C@@H](C)[C@@H]1O [Example 41 β-anomer, 14-deoxy-14-[(2,3,5-tri-O-acetyl-β-D-ribofuranosyl)thioacetoxy]mutilin], the “Units of Activity” value [1] is reported as “about 450 mcg/mg”.

With C=C[C@]1(C)C[C@@H](OC(=O)CS[C@@H]2O[C@H](COC(C)=O)[C@@H](O[C@H]3O[C@H](COC(C)=O)[C@@H](OC(C)=O)[C@H](OC(C)=O)[C@H]3OC(C)=O)[C@H](OC(C)=O)[C@H]2OC(C)=O)[C@]2(C)[C@H](C)CC[C@]3(CCC(=O)[C@H]32)[C@@H](C)[C@@H]1O [Example 52, 14-Deoxy-14-[(4-O-(2,3,4,6-tetra-O-acetyl-α-D-glucopyranosyl)-2,3,6-tri-O-acetyl-β-D-glucopyranosyl)thioacetoxy]mutilin] the “Units of Activity” value [1] was 40 µg/mg.

In the case of CC[C@]1(C)C[C@@H](OC(=O)CS[C@@H]2O[C@H](COC(C)=O)[C@@H](O[C@H]3O[C@H](COC(C)=O)[C@@H](OC(C)=O)[C@H](OC(C)=O)[C@H]3OC(C)=O)[C@H](OC(C)=O)[C@H]2OC(C)=O)[C@]2(C)[C@H](C)CC[C@]3(CCC(=O)[C@H]32)[C@@H](C)[C@@H]1O [Example 53], the “Units of Activity” value [1] is reported as 28 µg/mg.
